Literature values, collected in patent publication US8153159B2, “Modafinil modified release pharmaceutical compositions” (Cephalon, Inc., priority 2003, dated 2012).

Assays:
monkeys = details: single administration, Duteil et al. 1990
mice = details: single administration, Duteil et al. 1990
humans = details: Bastuji et al. 1988

**Q.** Which results are given for NC(=O)C[S+]([O-])C(c1ccccc1)c1ccccc1 (stereo not drawn) [Modafinil, 2-(benzhydrylsulfinyl)acetamide]?
**A.** nocturnal activity (monkeys): increased nocturnal activity; locomotor activity (mice): increased locomotor activity; treatment of idiopathic hypersomnia and narcolepsy (humans): successfully tested
